Measured values: US5770587A, “Antifungal agents” (Merck & Co., Inc., priority 1996, dated 1998)

Key:
Format in all cases: cell-based
panel of fungi = assay: broth microdilution assay against a panel of fungi, comparison with amphotericin B; conditions: MIC and MFC against a panel of fungi
Experimental: (§1) In the microbroth dilution assay, microorganisms were selected by streaking a yeast culture on Sabouraud dextrose agar (SDA) incubating for 24-48 hours at 35°-37° C., thereafter selected 3 to 5 characteristic colonies and transferring to a fresh plate and incubating under similar conditions. From the regrowth, 3 to 5 colonies were selected and suspended in 10 milliliters of YM broth (Difco) and incubated for 4 hours at 35°-37° C. shaking at 225 rpm. The 4 hour broth cultures were adjusted optically to 86% transmission resulting in a concentration of 1-5×10^6 cfu/ml which was further diluted 1:100 in YNBD (yeast nitrogen base with 1 % dextrose) to obtain a concentration of 1-5×10^4 cfu/ml for use as inocula. […]
(§2) The plates containing the diluted compounds were then inoculated with 75 μl/well of the appropriate microorganism and incubated for 48 hours at 35°-37° C. with MIC (minimum inhibitory concentration) determinations carried out after 24 hours of incubation (except Cryptococcus strains which are read at 48 hours). […]
(§3) After recording MICs at 24 hours, the microtiter plates were shaken gently to resuspend the cells. […] For Cryptococcus neoformans, SDA plates were inoculated at 48 hours after recording MICs and incubated 48 hours before reading the MFC. […]

[1] = test system: Aspergillus fumigatus (MY4839); assay: broth microdilution assay (MIC)
Experimental: as §1, §2, §3

[2] = test system: Aspergillus fumigatus (MY5668); assay: broth microdilution assay (MIC)
Experimental: as §1, §2, §3

[3] = test system: Aspergillus flavus, Fusarium oxysporum, Ustilago zeae and the like; assay: agar plate inhibition zone test, filamentous fungi; conditions: agar plates, 28° C. or 37° C., 24 hours, inhibition zones
[4] = test system: Saccharomyces cerevisiae (MY2141); assay: broth microdilution assay (MIC/MFC)
Experimental: (§4) In the microbroth dilution assay, microorganisms were selected by streaking a yeast culture on Sabouraud dextrose agar (SDA) incubating for 24-48 hours at 35°-37° C., thereafter selected 3 to 5 characteristic colonies and transferring to a fresh plate and incubating under similar conditions. From the regrowth, 3 to 5 colonies were selected and suspended in 10 milliliters of YM broth (Difco) and incubated for 4 hours at 35°-37° C. shaking at 225 rpm. The 4 hour broth cultures were adjusted optically to 86% transmission resulting in a concentration of 1-5×10^6 cfu/ml which was further diluted 1:100 in YNBD (yeast nitrogen base with 1 % dextrose) to obtain a concentration of 1-5×10^4 cfu/ml for use as inocula.
(§5) The test compounds, Compounds I and II, were dissolved at 512 μg/ml in 10% DMSO and diluted 2× into the first well to achieve a concentration of 256 μg/ml at 5% DMSO in the first well. Compounds are subsequently serially diluted 2× and cell suspension is added to each well resulting in an additional 2× dilution of compound. 75 μl of said solution is delivered to each well in column 1 of a 96-well, U-bottomed microtiter plate. The compounds in column 1 were then serially diluted two-fold to yield concentrations from 128 μg/ml to 0.06 μg/ml.
(§6) The plates containing the diluted compounds were then inoculated with 75 μl/well of the appropriate microorganism and incubated for 48 hours at 35°-37° C. with MIC (minimum inhibitory concentration) determinations carried out after 24 hours of incubation (except Cryptococcus strains which are read at 48 hours). Growth and sterility controls for each organism and sterility checks for the compounds also were carried out.
(§7) After recording MICs at 24 hours, the microtiter plates were shaken gently to resuspend the cells. A 1.5 μl sample was transferred from each well of the 96-well microtiter plate to a single reservoir inoculum plate containing SDA. The inoculated SDA and corresponding microtiter plates were incubated for 24 hours at 35°-37° C. For Cryptococcus neoformans, SDA plates were inoculated at 48 hours after recording MICs and incubated 48 hours before reading the MFC. MFC is the lowest concentration of compound at which either no growth or growth of ≤4 colonies occur.

[5] = test system: Candida glabrata (MY1381); assay: broth microdilution assay (MIC/MFC)
Experimental: as §4, §5, §6, §7

[6] = test system: Cryptococcus neoformans (MY2061); assay: broth microdilution assay (MIC/MFC)
Experimental: as §4, §5, §6, §7

[7] = test system: Cryptococcus neoformans (MY2062); assay: broth microdilution assay (MIC/MFC)
Experimental: as §4, §5, §6, §7

[8] = test system: Saccharomyces cerevisiae (MY2140); assay: broth microdilution assay (MIC/MFC)
Experimental: as §4, §5, §6, §7

[9] = test system: Candida guillermondii (MY1019); assay: broth microdilution assay (MIC/MFC)
Experimental: as §4, §5, §6, §7

[10] = test system: Candida tropicalis (MY1124); assay: broth microdilution assay (MIC/MFC)
Experimental: as §4, §5, §6, §7

[11] = test system: Candida tropicalis (MY1012); assay: broth microdilution assay (MIC/MFC)
Experimental: as §4, §5, §6, §7

[12] = test system: Candida parapsilosis (MY1010); assay: broth microdilution assay (MIC/MFC); conditions: 24 h, 35-37° C.
Experimental: as §4, §5, §6, §7

[13] = test system: Candida albicans (CLY539); assay: broth microdilution assay (MIC/MFC)
Experimental: as §4, §5, §6, §7

[14] = test system: Candida albicans (MY1055); assay: broth microdilution assay (MIC/MFC)
Experimental: as §4, §5, §6, §7

Candida albicans (CA2) = assay: broth microdilution assay (MIC/MFC)
Experimental: as §4, §5, §6, §7

[15] = test system: Candida pseudotropicalis (MY2099); assay: broth microdilution assay (MIC/MFC)
Experimental: as §4, §5, §6, §7

[16] = SDA incubated 48 h, no growth or ≤4 colonies

CC(C)C1CCC2C1(C)CCC1(C)C3=CCC4C(C)(C(=O)O)C(O)C(O)C(O)C4(C(=O)O)C3CCC21C (centres unmarked) [Compound II]
effective concentrations compared with amphotericin B (panel of fungi): effective at concentrations comparable to an established antifungal agent, amphotericin B | Minimum Inhibitory Concentration (MIC) [1]: 8 µg/mL | Minimum Inhibitory Concentration (MIC) [2]: > 128 µg/mL | inhibition of growth of filamentous fungi [3]: effectively inhibit growth of the fungal organisms | Minimum Inhibitory Concentration (MIC) ([4]; 24 h, 35-37° C.): 4 µg/mL | Minimum Fungicidal Concentration (MFC) ([4]; no growth or ≤4 colonies): 4 µg/mL | Minimum Inhibitory Concentration (MIC) ([5]; 24 h, 35-37° C.): 8 µg/mL | Minimum Fungicidal Concentration (MFC) ([5]; no growth or ≤4 colonies): 8 µg/mL | Minimum Fungicidal Concentration (MFC) [6, 16]: 4 µg/mL | Minimum Inhibitory Concentration (MIC) ([6]; read at 48 h, 35-37° C.): 4 µg/mL | Minimum Fungicidal Concentration (MFC) [7, 16]: 4 µg/mL | Minimum Inhibitory Concentration (MIC) ([7]; read at 48 h, 35-37° C.): 4 µg/mL | Minimum Inhibitory Concentration (MIC) ([8]; 24 h, 35-37° C.): 4 µg/mL | Minimum Fungicidal Concentration (MFC) ([8]; no growth or ≤4 colonies): 4 µg/mL | Minimum Inhibitory Concentration (MIC) ([9]; 24 h, 35-37° C.): > 128 µg/mL | Minimum Fungicidal Concentration (MFC) ([9]; no growth or ≤4 colonies): > 128 µg/mL | Minimum Inhibitory Concentration (MIC) ([10]; 24 h, 35-37° C.): 8 µg/mL | Minimum Fungicidal Concentration (MFC) ([10]; no growth or ≤4 colonies): 8 µg/mL | Minimum Inhibitory Concentration (MIC) ([11]; 24 h, 35-37° C.): 4 µg/mL | Minimum Fungicidal Concentration (MFC) ([11]; no growth or ≤4 colonies): 8 µg/mL | Minimum Inhibitory Concentration (MIC) [12]: 32 µg/mL | Minimum Inhibitory Concentration (MIC) ([13]; 24 h, 35-37° C.): 8 µg/mL | Minimum Fungicidal Concentration (MFC) ([13]; no growth or ≤4 colonies): 8 µg/mL | Minimum Inhibitory Concentration (MIC) ([14]; 24 h, 35-37° C.): 8 µg/mL | Minimum Fungicidal Concentration (MFC) ([14]; no growth or ≤4 colonies): 8 µg/mL | Minimum Inhibitory Concentration (MIC) (Candida albicans (CA2); 24 h, 35-37° C.): 8 µg/mL | Minimum Fungicidal Concentration (MFC) (Candida albicans (CA2); no growth or ≤4 colonies): 8 µg/mL | Minimum Inhibitory Concentration (MIC) ([15]; 24 h, 35-37° C.): 4 µg/mL | Minimum Fungicidal Concentration (MFC) ([15]; no growth or ≤4 colonies): 4 µg/mL
